The text below walks through data of ChEMBL document CHEMBL6083232, “A review on synthetic inhibitors of dual-specific tyrosine phosphorylation-regulated kinase 1A (DYRK1A) for the treatment of Alzheimer's disease (AD)” (Bioorg Med Chem, 2024).

Structures are written as SMILES. pIC50: −log10 of the molar value.

The target of the first data set is T1, Dual specificity tyrosine-phosphorylation-regulated kinase 4 (Homo sapiens, UniProt Q9NR20).
T1 sequence (Q9NR20 whole entry): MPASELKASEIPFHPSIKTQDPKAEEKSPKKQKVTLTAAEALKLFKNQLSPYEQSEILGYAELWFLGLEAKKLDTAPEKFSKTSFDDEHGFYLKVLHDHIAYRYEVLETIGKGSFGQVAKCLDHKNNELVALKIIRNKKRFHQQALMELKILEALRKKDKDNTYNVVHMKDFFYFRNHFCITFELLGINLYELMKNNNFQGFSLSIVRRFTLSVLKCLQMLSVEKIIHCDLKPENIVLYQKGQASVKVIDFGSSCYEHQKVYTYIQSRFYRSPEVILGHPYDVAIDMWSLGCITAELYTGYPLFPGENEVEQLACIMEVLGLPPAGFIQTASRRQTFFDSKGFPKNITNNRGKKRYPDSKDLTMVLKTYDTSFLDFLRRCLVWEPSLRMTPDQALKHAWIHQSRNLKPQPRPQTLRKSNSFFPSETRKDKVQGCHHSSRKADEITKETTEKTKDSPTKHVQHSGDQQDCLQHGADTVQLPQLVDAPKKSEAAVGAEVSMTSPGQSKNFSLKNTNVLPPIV
The data set can be described thus: Inhibition of DYRK4 (unknown origin).
As usually defined, the pIC50 is the negative decadic logarithm of the IC50, by convention in mol/L. Take `COc1ccc2cc3c4c(cc(OC)c(OC)c4c2c1)C(=O)N3` [ARISTOLACTAM BIII]: the pIC50 was 5.93.

The target in a further data set is T2, Dual specificity tyrosine-phosphorylation-regulated kinase 1A (Homo sapiens, UniProt Q13627). In words: Inhibition of human DYRK1A in presence of ATP by Kinomescan method.
For the compound `CCn1c2cc(OC)ccc2c2ccnc(C)c21`, the pIC50 was 5.05.
On the same count and under the same terms, the value for `COC(=N)c1nc2ccc3ncnc(Nc4ccc(F)cc4Br)c3c2s1` was 8.52; that for `NC1CCC(Nc2ncc3c(-c4ccnc(NCc5ccccc5)n4)n[nH]c3n2)CC1` (stereo not given) was 8.22; that for `NCC(Nc1nccc(-c2n[nH]c3nc(NC4CCC(N)CC4)ncc23)n1)c1cccc(Cl)c1` (stereo not given) was 8.34.
The same measure, in the same setting: the value for `NC1CCC(Nc2ncc3c(-c4ccnc(NCc5ccsc5)n4)n[nH]c3n2)CC1` (stereo not given) was 7.85.
The same measure, in the same setting: the value for `COc1cc2[nH]c(=O)c(C(=O)Nc3cc(C(=O)NCc4cccc(Cl)c4)ccc3C)cc2cc1OCCN1CCOCC1` was 7.80.

The target of the next data set is T2, Dual specificity tyrosine-phosphorylation-regulated kinase 1A. The data set can be described thus: Inhibition of human recombinant 6xHis-tagged DYRK1A catalytic domain (1 to 502 residues) extracted from Escherichia coli BL21 (DE3) cells incubated for 30 mins by Bradford's reagent based analysis.
As for `COc1ccc(-c2c[nH]c3ncc(-c4ccc(OC)c(OC)c4)cc23)cc1`, the pIC50 is 6.34.
Consider `COc1ccc(-c2cnc3[nH]cc(-c4ccc(OC)c(OC)c4)c3c2)cc1OC`, for which the pIC50 is 4.24.
Still for that read-out and setting: the value for `Oc1ccc(-c2cnc3[nH]cc(-c4ccc(O)c(O)c4)c3c2)cc1O` was 7.92.
On the same count and under the same terms, the value for `Oc1ccc(-c2cnc3[nH]cc(-c4ccc(F)c(F)c4)c3c2)cc1O` was 4.25.
As for `COc1ccc(-c2cnc3[nH]cc(-c4ccc(F)c(F)c4)c3c2)cc1OC`, the pIC50 is 5.28.
Same read-out and setting: the value for `COc1ccc(-c2c[nH]c3ncc(-c4ccc(OCc5ccccc5)c(OCc5ccccc5)c4)cc23)cc1OC` was 4.73; that for `COc1ccc(-c2c[nH]c3ncc(-c4ccc(O)c(O)c4)cc23)cc1OC` was 6.33.
Regarding `COc1ccc(-c2cnc3[nH]cc(-c4ccc(F)cc4)c3c2)cc1OC`, the negative logarithm of the IC50 (pIC50) is 5.84.

The next data set deals with Dual specificity tyrosine-phosphorylation-regulated kinase 1B (Homo sapiens, UniProt Q9Y463). The data set can be described thus: Inhibition of DYRK1B (unknown origin) by DiscoverX KINOMEscan assay.
Chain of Dual specificity tyrosine-phosphorylation-regulated kinase 1B (Q9Y463 whole entry): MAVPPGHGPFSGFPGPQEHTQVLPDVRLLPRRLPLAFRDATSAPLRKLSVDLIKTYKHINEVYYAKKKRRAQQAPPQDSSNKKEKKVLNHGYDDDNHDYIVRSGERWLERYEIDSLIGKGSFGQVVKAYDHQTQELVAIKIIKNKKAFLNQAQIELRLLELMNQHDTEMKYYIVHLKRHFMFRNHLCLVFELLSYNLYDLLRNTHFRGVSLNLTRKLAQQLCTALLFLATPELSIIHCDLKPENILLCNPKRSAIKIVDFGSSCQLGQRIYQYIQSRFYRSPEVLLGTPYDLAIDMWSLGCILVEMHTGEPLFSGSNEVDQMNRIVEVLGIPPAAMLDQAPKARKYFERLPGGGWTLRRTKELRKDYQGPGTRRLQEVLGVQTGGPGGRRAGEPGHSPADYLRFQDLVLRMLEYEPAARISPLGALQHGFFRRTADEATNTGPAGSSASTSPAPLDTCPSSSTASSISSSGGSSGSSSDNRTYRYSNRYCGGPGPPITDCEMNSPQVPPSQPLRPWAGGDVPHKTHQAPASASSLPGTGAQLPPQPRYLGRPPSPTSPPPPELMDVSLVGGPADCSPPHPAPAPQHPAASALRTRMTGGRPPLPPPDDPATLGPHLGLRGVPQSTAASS
Compound `O=C(Nc1ccc(C(=O)NCc2ccccc2)cc1)Nc1nc2ccc(O)cc2s1` gave a pIC50 of 7.25.

For a further data set, the target named is T2, Dual specificity tyrosine-phosphorylation-regulated kinase 1A. The data set can be described thus: Inhibition of DYRK1A (unknown origin).
The compound `CC(C)Nc1cncc(-c2ccc3cnc(NC(=O)C4CCN(C)CC4)cc3c2)n1` had a pIC50 of 9.00.
On the same count and under the same terms, the value for `CC(C)N1CCC(n2cc(C(=O)Nc3cc4cc(-c5cnn(C)c5)ccc4cn3)cn2)CC1` was 9.00; that for `Cc1nc2ccc(-c3ccnc(N)c3)nc2n1-c1ccc(N2CCN(CCOCCOCCC(=O)N3CCN(Cc4ccc(CNc5cccc6c5C(=O)N(C5CCC(=O)NC5=O)C6)cc4)CC3)CC2)c(F)c1` (stereo not given) was over 5.00; that for `O=c1[nH]c2ccc(-c3cncc(NCc4ccccc4)n3)cc2[nH]1` was 9.00.
As to `COCCn1nc2c(c1C#N)-c1cnc3[nH]cc(c3c1)-c1cn(nc1C(F)(F)F)CCCC(=O)N(C)C2`, the pIC50 was over 7.30.
Compound `COc1nc(NC2CCN(C(C)=O)CC2F)nn2ccc(-c3ccc4nnn(CC(F)F)c4c3)c12` (stereo not given) gave a pIC50 of 9.00.
Still for that read-out and setting: the value for `Cn1cc(C(=O)Nc2ncc(-c3ccc(C#N)cc3)s2)ccc1=O` was over 8.00; that for `COCC(CC(C)C)NC1=N/C(=C\c2ccc3ncsc3c2)C(=O)N1C` (stereo not given) was over 8.30; that for `O=C(NC1=Cc2ccc(O)cc2C1)Nc1ccc(NC(=O)c2ccc(O)cc2)cc1` was 8.11.
The compound `CN1CCN(c2ccc(-c3ncnc4ccc(-c5ccnc(N)c5)cc34)cc2F)CC1` gave a pIC50 of over 7.00.

For another data set, the target named is Dual specificity protein kinase CLK1 (Homo sapiens, UniProt P49759). The data set can be described thus: Inhibition of CLK1 (unknown origin).
Chain of Dual specificity protein kinase CLK1 (P49759 whole entry): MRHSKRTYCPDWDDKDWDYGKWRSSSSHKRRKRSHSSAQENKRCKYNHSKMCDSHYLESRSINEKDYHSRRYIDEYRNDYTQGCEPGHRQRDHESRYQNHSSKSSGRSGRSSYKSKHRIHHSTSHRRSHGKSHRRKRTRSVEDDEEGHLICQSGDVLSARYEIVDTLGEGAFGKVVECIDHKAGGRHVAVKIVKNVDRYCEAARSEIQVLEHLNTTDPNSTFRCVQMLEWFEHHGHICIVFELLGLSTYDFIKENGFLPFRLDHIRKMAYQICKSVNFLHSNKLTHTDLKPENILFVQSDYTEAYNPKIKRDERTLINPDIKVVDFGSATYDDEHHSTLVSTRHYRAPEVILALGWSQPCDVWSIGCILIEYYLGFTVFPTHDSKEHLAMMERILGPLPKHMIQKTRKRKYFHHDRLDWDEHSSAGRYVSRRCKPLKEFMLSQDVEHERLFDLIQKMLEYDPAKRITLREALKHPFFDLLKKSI
As for `COc1ccc2cc3c4c(cc(OC)c(OC)c4c2c1)C(=O)N3` [ARISTOLACTAM BIII], the pIC50 was 7.30.

System in a further data set: not listed separately
The data set can be described thus: Half life in human. It counts as ADME.
The half-life is the time needed for the level to fall by half in the phase considered. Low values mean fast loss, high ones slow loss. In turn, `CN1CCN(C(=O)c2ccc(NC(=O)Nc3nc4ccc(O)cc4s3)cc2)CC1` yielded a half-life of over 1 h.

A further data set deals with T2, Dual specificity tyrosine-phosphorylation-regulated kinase 1A. In words: Inhibition of DYRK1A (unknown origin) by FRET assay.
For the compound `COc1ccc2c(c1)[nH]c1c3c(OC)cncc3cc(C#N)c21`, the pIC50 was 6.74.
Same read-out and setting: the value for `CC(=O)Nc1nc2cc(O)ccc2s1` was 6.40.
Same read-out and setting: the value for `Cc1ccc(NC(=O)c2n[nH]c3ccc(-c4cncc(CN5CCCCC5)c4)cc23)cn1` was 9.00; that for `CCN1/C(=C/C(C)=O)Sc2cc3oc4ccccc4c3cc21` was 7.70; that for `Cc1c(O)cccc1-c1ccc2nc(NC(=O)C3CC3F)sc2c1` (stereo not given) was 8.22.
The same measure, in the same setting: the value for `Cc1nc2ccc(-c3cc(N)nc(N)c3)nc2n1-c1ccccc1` was 8.70; that for `Cc1nc(Nc2ccccc2)c2c(-c3cc(N)nc(N)c3)c[nH]c2n1` was 8.70.

Another data set deals with Cyclin-dependent kinase 1 (Homo sapiens, UniProt P06493). In words: Inhibition of CDK1 (unknown origin).
Chain of Cyclin-dependent kinase 1 (P06493 whole entry): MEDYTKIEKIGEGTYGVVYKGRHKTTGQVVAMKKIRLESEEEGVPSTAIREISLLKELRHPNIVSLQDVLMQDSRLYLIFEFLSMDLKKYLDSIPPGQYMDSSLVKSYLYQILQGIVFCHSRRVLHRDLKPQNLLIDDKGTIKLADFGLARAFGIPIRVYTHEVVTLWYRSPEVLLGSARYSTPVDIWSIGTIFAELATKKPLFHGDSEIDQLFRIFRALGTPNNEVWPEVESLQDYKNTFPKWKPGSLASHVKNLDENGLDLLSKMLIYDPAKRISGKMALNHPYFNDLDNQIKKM
Turning to `COc1ccc2cc3c4c(cc(OC)c(OC)c4c2c1)C(=O)N3` [ARISTOLACTAM BIII], the pIC50 is 6.39.

The target in the next data set is T2, Dual specificity tyrosine-phosphorylation-regulated kinase 1A. In words: Inhibition of DYRK1A (unknown origin) extracted from Escherichia coli BL21 (DE3) cells measured for 60 mins by FRET assay.
Take `CN(Cc1ccco1)c1ncnc2ccc(-c3ccc4c(c3)OCO4)cc12`: the pIC50 is 6.82.
The same measure, in the same setting: the value for `O=C1NC(Nc2ccc(O)cc2)=N/C1=C\c1ccc2c(c1)OCO2` was 7.08.
Still for that read-out and setting: the value for `Oc1ccc(-c2cnc3cnc(-c4ccc(O)cc4)nc3c2)cc1` was 6.05; that for `CCCC#Cc1ccnc2[nH]cc(-c3ccnc(N)n3)c12` was 7.70.
